The text below walks through data of paper PMC12903857.

For data set [1], the target named is T1, 14-3-3σ (Homo sapiens, UniProt P31947).
T1 sequence (P31947 1-248): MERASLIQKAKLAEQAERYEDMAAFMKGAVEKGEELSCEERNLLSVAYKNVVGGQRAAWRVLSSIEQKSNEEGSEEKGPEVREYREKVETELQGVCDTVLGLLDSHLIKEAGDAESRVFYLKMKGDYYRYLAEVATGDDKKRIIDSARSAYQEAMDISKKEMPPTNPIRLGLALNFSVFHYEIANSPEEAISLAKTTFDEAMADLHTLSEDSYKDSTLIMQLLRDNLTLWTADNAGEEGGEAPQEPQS
The data set can be described thus: FA, Kd of 15-mer RAF peptides.
Protocol: Ea ch compound was measured in triplicates, i n two i ndependent experi ments. Fluorescence anisotropy measurements were performed directly and a€er overnight incubaton at room temperature.
Fluorescence anisotropy measurements were performed a€er overnight incubaton at room temperature .

The test system of data set [2] is C-RAF/C-RAF. The note with it: with N-RAS Q61L; 100% = DMSO mBU.
The target in data set [3] is 14-3-3σ/C-RAF259 (Homo sapiens, UniProt P31947). Briefly: Fluorescence anisotropy (FA) compound titration. The data set is classed as binding. The note with it: 10 nM C-RAF259-FAM 10-mer, 5 μΜ 14-3-3σ, overnight; read-out: Compound titrations EC50 value C-RAF259.
The target in data set [4] is 14-3-3σ/C-RAF (Homo sapiens, UniProt P31947). The data set can be described thus: cell-based.
The nature of data set [5]: Solubility in the assay conditions. The data set is classed as physicochemical. The note with it: MS assay conditions.
Data set [6] concerns N-RAS Q61L/C-RAF. The conditions noted are these: HEK293T; 100% = DMSO mBU, 0% = N-RAS/C-RAF R89L.
Data set [7] deals with 80 peptides representing a diverse set of 14-3-3 clients. Briefly: FA selectivity panel, single point. The note with it: 10.5 μM compound, 100 nM client peptides, overnight; hit = change in anisotropy of more than 15 units.
Protocol: concentraton (50 μM, maximum eﬀect) was used.
giving the anisotropy change (ΔAU ) .
sele tme: 0 ms, gain: optmal).
The test system of data set [8] is pERK. The data set can be described thus: Lumit immunoassay for pERK with 14-3-3 C38N mutant. Format: cell-based. The conditions noted are these: HEK293T.
The subject of data set [9] is pERK. The data set can be described thus: Lumit immunoassay for pERK levels in HEK293T cells. Format: cell-based. The note with it: pERK modulation.

14-3-3σ/C-RAF, sequence (P04049 whole entry partner, one chain of several): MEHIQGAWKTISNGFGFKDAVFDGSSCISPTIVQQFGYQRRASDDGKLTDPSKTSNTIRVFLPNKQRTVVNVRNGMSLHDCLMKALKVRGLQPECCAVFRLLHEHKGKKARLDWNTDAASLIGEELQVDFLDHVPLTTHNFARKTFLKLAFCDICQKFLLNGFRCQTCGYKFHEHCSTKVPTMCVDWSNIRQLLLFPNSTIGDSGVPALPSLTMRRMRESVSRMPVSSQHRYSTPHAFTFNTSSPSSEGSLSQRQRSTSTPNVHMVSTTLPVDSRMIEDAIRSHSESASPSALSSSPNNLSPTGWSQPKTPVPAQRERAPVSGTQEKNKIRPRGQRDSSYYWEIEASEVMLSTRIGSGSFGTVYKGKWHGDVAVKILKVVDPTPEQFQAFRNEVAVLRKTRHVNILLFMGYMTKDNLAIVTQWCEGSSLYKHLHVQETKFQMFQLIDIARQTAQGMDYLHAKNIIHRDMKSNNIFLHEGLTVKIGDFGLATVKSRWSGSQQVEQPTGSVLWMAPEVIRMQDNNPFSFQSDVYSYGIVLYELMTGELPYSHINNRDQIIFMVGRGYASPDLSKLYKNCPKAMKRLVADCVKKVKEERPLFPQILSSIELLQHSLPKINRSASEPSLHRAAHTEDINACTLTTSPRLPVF

The Kd is the equilibrium constant for the complex coming apart. A low value points to tighter binding. Turning to `CC[C@H](C)[C@H](NC(=O)[C@H](CCCNC(=N)N)NC(=O)[C@H](CCC(N)=O)NC(=O)[C@H](CC(C)C)NC(=O)c1ccc2c(c1)C(=O)OC21c2ccc(O)cc2Oc2cc(O)ccc21)C(=O)N[C@@H](CCCNC(=N)N)C(=O)N[C@@H](CO)C(=O)N[C@H](C(=O)N[C@@H](COP(=O)(O)O)C(=O)N[C@H](C(=O)N1CCC[C@H]1C(=O)N[C@@H](CC(N)=O)C(=O)N[C@H](C(=O)N[C@@H](Cc1c[nH]cn1)C(=O)N[C@@H](CCSC)C(=O)N[C@H](C(N)=O)C(C)C)C(C)C)[C@@H](C)O)[C@@H](C)O` [A-RAF 15-mer], the Kd in data set [1] lay in the range of 8000 to 10000 nM.

In the case of `CSCC[C@H](NC(=O)[C@H](Cc1c[nH]cn1)NC(=O)[C@@H](NC(=O)[C@H](CC(N)=O)NC(=O)[C@@H]1CCCN1C(=O)[C@@H](NC(=O)[C@H](COP(=O)(O)O)NC(=O)[C@@H](NC(=O)[C@H](CO)NC(=O)[C@H](CCCNC(=N)N)NC(=O)[C@H](CCC(N)=O)NC(=O)[C@H](CCCNC(=N)N)NC(=O)[C@H](CCC(N)=O)NC(=O)[C@H](CO)NC(=O)c1ccc2c(c1)C(=O)OC21c2ccc(O)cc2Oc2cc(O)ccc21)[C@@H](C)O)[C@@H](C)O)C(C)C)C(=O)N[C@H](C(N)=O)C(C)C` [C-RAF 15-mer, 5-FAM-SQRQRST{pS}TPNVHMV-CONH2], in data set [1], the Kd is 8000 to 10000 nM.

In the case of `O=C(CCl)N1CC2(C1)CN(S(=O)(=O)c1ccc(Br)cc1)CCO2` [Compound 78], the “decrease in C-RAF homodimer formation” value in data set [2] is given as around 20%. For the same compound, the EC50 in [3] stood at 2000 ± 1000 nM; in data set [4], 1200 nM. For the same compound, the “solubility in the assay conditions” value in data set [5] was “poor solubility”. For the same compound, in data set [6], the “reduction of the N-RAS Q61L/C-RAF interaction” value is listed as “no clear trend”.

Regarding `O=C(CCl)NCC1CCN(S(=O)(=O)c2ccc(Br)cc2)CC1` [Compound 22], the “clients emerged as hits” value in data set [7] is reported as “six”.

For the compound `O=C(CCl)N1CC2(C1)CN(S(=O)(=O)c1ccc(Br)c(F)c1)CCO2` [Compound 70], in data set [2], the “decrease in C-RAF homodimer formation” value is listed as around 20%. Moreover, in data set [3], the EC50 is 2000 nM. For the same compound, in [6], the “reduction of the N-RAS Q61L/C-RAF interaction” value was “no clear trend”.

Regarding `CC(=O)Nc1cccc(-n2c(=O)n(C3CC3)c(=O)c3c(Nc4ccc(I)cc4F)n(C)c(=O)c(C)c32)c1` [Trametinib, reference compound], in [8], the “effect on pERK with the C38N mutant” value was “same effect”. In addition, the “time taken to modulate the pathway” value in data set [9] is given as 3 h.

Consider `O=C(CCl)N1CC2(C1)CN(S(=O)(=O)c1ccc(I)cc1)CCO2` [Compound 79], for which the EC50 in data set [3] was determined as 2000 ± 1000 nM. Also, the “solubility in the assay conditions” value in data set [5] was “poor solubility”.
